Data published in the NIST ThermoML archive (doi:10.1021/je700287u).

Assay: xn = mol fraction of the nth substance listed
Conditions: Liquid

CN(CCO)CCO [N-methyldiethanolamine] + O
Conditions	mass density [kg/m3]
313.12 K, 1001 kPa, x1 = 0.0369	1005.7
313.12 K, 2015 kPa, x1 = 0.0369	1006.1
313.12 K, 2986 kPa, x1 = 0.0369	1006.5
313.12 K, 3994 kPa, x1 = 0.0369	1006.9
313.12 K, 5003 kPa, x1 = 0.0369	1007.3
313.12 K, 6002 kPa, x1 = 0.0369	1007.7
313.12 K, 6994 kPa, x1 = 0.0369	1008.1
313.12 K, 7995 kPa, x1 = 0.0369	1008.5
313.12 K, 8996 kPa, x1 = 0.0369	1008.9
313.12 K, 9983 kPa, x1 = 0.0369	1009.3
313.12 K, 10989 kPa, x1 = 0.0369	1009.7
313.12 K, 11991 kPa, x1 = 0.0369	1010.1
313.12 K, 12991 kPa, x1 = 0.0369	1010.5
313.12 K, 13988 kPa, x1 = 0.0369	1010.9
313.12 K, 14989 kPa, x1 = 0.0369	1011.4
313.12 K, 15985 kPa, x1 = 0.0369	1011.7
313.12 K, 16984 kPa, x1 = 0.0369	1012.1
313.12 K, 17985 kPa, x1 = 0.0369	1012.5
313.12 K, 18989 kPa, x1 = 0.0369	1012.9
313.12 K, 19945 kPa, x1 = 0.0369	1013.3
313.13 K, 1003 kPa, x1 = 0.1302	1033.5
313.13 K, 1011 kPa, x1 = 0.0893	1025.9
313.13 K, 1993 kPa, x1 = 0.1302	1033.9
313.13 K, 1994 kPa, x1 = 0.0893	1026.2
313.13 K, 2999 kPa, x1 = 0.1302	1034.3
313.13 K, 3002 kPa, x1 = 0.0893	1026.6
313.13 K, 3994 kPa, x1 = 0.1302	1034.6
313.13 K, 3998 kPa, x1 = 0.0893	1027
313.13 K, 4984 kPa, x1 = 0.1302	1035
313.13 K, 4998 kPa, x1 = 0.0893	1027.4
313.13 K, 6001 kPa, x1 = 0.0893	1027.8
313.13 K, 6001 kPa, x1 = 0.1302	1035.4
313.13 K, 6993 kPa, x1 = 0.1302	1035.8
313.13 K, 6994 kPa, x1 = 0.0893	1028.1
313.13 K, 8000 kPa, x1 = 0.0893	1028.5
313.13 K, 8003 kPa, x1 = 0.1302	1036.1
313.13 K, 8996 kPa, x1 = 0.1302	1036.5
313.13 K, 8999 kPa, x1 = 0.0893	1028.9
313.13 K, 9989 kPa, x1 = 0.1302	1036.8
313.13 K, 9995 kPa, x1 = 0.0893	1029.2
313.13 K, 10983 kPa, x1 = 0.1302	1037.2
313.13 K, 10990 kPa, x1 = 0.0893	1029.6
313.13 K, 11992 kPa, x1 = 0.1302	1037.6
313.13 K, 12001 kPa, x1 = 0.0893	1030
313.13 K, 12980 kPa, x1 = 0.1302	1037.9
313.13 K, 12989 kPa, x1 = 0.0893	1030.3
313.13 K, 14000 kPa, x1 = 0.0893	1030.7
313.13 K, 14000 kPa, x1 = 0.1302	1038.3
313.13 K, 14999 kPa, x1 = 0.0893	1031.1
313.13 K, 15002 kPa, x1 = 0.1302	1038.7
313.13 K, 15995 kPa, x1 = 0.0893	1031.4
313.13 K, 16001 kPa, x1 = 0.1302	1039.1
313.13 K, 16998 kPa, x1 = 0.1302	1039.5
313.13 K, 17013 kPa, x1 = 0.0893	1031.8
313.13 K, 17991 kPa, x1 = 0.1302	1039.8
313.13 K, 17993 kPa, x1 = 0.0893	1032.2
313.13 K, 18991 kPa, x1 = 0.0893	1032.6
313.13 K, 18996 kPa, x1 = 0.1302	1040.2
313.13 K, 19990 kPa, x1 = 0.1302	1040.5
313.13 K, 19991 kPa, x1 = 0.0893	1032.9
313.14 K, 999 kPa, x1 = 0.0607	1018.1
313.14 K, 2000 kPa, x1 = 0.0607	1018.5
313.14 K, 3028 kPa, x1 = 0.0607	1018.9
313.14 K, 4020 kPa, x1 = 0.0607	1019.3
313.14 K, 5011 kPa, x1 = 0.0607	1019.7
313.14 K, 6015 kPa, x1 = 0.0607	1020.1
313.14 K, 7003 kPa, x1 = 0.0607	1020.4
313.14 K, 8009 kPa, x1 = 0.0607	1020.8
313.14 K, 9014 kPa, x1 = 0.0607	1021.2
313.14 K, 10000 kPa, x1 = 0.0607	1021.5
313.14 K, 10977 kPa, x1 = 0.0607	1022
313.14 K, 12029 kPa, x1 = 0.0607	1022.3
313.14 K, 13022 kPa, x1 = 0.0607	1022.7
313.14 K, 13988 kPa, x1 = 0.0607	1023
313.14 K, 15009 kPa, x1 = 0.0607	1023.4
313.14 K, 16003 kPa, x1 = 0.0607	1023.8
313.14 K, 16995 kPa, x1 = 0.0607	1024.2
313.14 K, 18007 kPa, x1 = 0.0607	1024.6
313.14 K, 19000 kPa, x1 = 0.0607	1024.9
313.14 K, 19950 kPa, x1 = 0.0607	1025.3
323.08 K, 1011 kPa, x1 = 0.0607	1012.5
323.08 K, 2015 kPa, x1 = 0.0607	1012.9
323.08 K, 3015 kPa, x1 = 0.0607	1013.2
323.08 K, 4025 kPa, x1 = 0.0607	1013.7
323.08 K, 4995 kPa, x1 = 0.0607	1014
323.08 K, 6015 kPa, x1 = 0.0607	1014.4
323.08 K, 7015 kPa, x1 = 0.0607	1014.8
323.08 K, 7992 kPa, x1 = 0.0607	1015.2
323.08 K, 9006 kPa, x1 = 0.0607	1015.6
323.08 K, 10014 kPa, x1 = 0.0607	1016
323.08 K, 11000 kPa, x1 = 0.0607	1016.3
323.08 K, 12064 kPa, x1 = 0.0607	1016.8
323.08 K, 13004 kPa, x1 = 0.0607	1017.1
323.08 K, 13990 kPa, x1 = 0.0607	1017.5
323.08 K, 14997 kPa, x1 = 0.0607	1017.9
323.08 K, 15999 kPa, x1 = 0.0607	1018.2
323.08 K, 16993 kPa, x1 = 0.0607	1018.6
323.08 K, 18008 kPa, x1 = 0.0607	1019
323.08 K, 19017 kPa, x1 = 0.0607	1019.4
323.08 K, 19961 kPa, x1 = 0.0607	1019.7
323.09 K, 1017 kPa, x1 = 0.1302	1026.6
323.09 K, 1034 kPa, x1 = 0.0369	1001.1
323.09 K, 2001 kPa, x1 = 0.1302	1027
323.09 K, 2004 kPa, x1 = 0.0369	1001.5
323.09 K, 2993 kPa, x1 = 0.0369	1001.9
